Measured values: patent US20250197409A1, “BIFUNCTIONAL COMPOUND AND PHARMACEUTICAL COMPOSITION COMPRISING THE BIFUNCTIONAL COMPOUND, AND METHOD FOR TREATING ANDROGEN RECEPTOR RELATED DISEASE BY USING THE SAME” (ANHORN MEDICINES CO., LTD., priority 2022, published 2025)
Read-outs that look alike come from different tables or passages of the source.

Molecular target: T1, androgen receptor (Homo sapiens, UniProt P10275, T878A)
T1 construct: host or cells: LNCaP.FGC
Experiment: Androgen receptor degradation assay using Western blot analysis
Format: cell-based
Summary of the method: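 LNCaP.FGC cells (2×10^5/well) treated with 10-fold serial dilutions in RPMI from 100 nM stock; untreated cells as negative control. AR Western signal normalized to GAPDH, expressed as % remaining versus untreated (100%). DC50 derived from calibration curve of serial dilutions.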

[1] = 24 h, read-out: Androgen Receptor Remaining (%), LNCaP.FGC cells, 100 nM, 24 hr, normalized to GAPDH, untreated cells = 100%
[2] = read-out: AR DC50 (concentration needed for 50% AR degradation); LNCaP.FGC cells, serial 10x dilutions from 100 nM

T1 sequence (P10275 whole entry T878A): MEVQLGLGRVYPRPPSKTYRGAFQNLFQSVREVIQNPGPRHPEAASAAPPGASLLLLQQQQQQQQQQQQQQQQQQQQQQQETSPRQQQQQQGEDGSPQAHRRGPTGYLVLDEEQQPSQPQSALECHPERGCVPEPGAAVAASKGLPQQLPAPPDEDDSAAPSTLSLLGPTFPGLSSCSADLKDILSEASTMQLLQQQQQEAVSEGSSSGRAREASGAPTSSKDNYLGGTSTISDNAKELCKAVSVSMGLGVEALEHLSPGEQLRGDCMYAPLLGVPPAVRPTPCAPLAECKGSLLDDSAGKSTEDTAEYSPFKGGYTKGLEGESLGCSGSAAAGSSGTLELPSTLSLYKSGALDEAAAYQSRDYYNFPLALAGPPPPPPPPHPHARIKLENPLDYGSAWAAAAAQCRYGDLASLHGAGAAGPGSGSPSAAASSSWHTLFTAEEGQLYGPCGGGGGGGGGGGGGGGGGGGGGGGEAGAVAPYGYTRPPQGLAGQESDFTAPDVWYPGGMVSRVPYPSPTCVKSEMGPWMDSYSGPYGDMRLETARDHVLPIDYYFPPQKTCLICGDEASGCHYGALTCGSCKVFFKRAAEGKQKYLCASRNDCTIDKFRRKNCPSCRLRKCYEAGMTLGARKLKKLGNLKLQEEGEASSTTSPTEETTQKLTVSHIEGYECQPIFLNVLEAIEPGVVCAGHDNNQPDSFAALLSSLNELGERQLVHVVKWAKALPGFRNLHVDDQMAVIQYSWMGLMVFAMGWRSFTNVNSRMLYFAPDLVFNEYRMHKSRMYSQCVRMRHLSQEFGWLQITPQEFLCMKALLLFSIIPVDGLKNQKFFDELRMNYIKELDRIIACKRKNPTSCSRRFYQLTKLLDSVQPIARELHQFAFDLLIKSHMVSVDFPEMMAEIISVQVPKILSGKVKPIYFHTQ
T1 sequence (Q96SW2 whole entry partner): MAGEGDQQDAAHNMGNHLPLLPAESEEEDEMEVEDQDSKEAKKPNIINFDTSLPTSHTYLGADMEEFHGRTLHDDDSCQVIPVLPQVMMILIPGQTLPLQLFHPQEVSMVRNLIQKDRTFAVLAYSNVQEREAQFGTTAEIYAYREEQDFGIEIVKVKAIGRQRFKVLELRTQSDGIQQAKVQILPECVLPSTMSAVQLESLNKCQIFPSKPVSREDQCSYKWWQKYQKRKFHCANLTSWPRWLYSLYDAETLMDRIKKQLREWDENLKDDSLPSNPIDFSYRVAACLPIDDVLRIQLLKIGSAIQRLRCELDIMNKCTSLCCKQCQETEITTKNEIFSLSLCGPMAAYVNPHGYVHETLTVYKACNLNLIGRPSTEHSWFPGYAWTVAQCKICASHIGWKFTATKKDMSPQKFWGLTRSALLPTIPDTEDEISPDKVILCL

| Compound | remaining activity at 0.1 µM [1] | DC50 [2] | further results |
| --- | --- | --- | --- |
| CCn1c2c(c3ccc(OCCCCN4CCN(c5ccc(C(=O)N[C@H]6CC[C@H](Oc7ccc(C#N)c(Cl)c7)CC6)nn5)CC4)cc31)C(=O)N(C1CCC(=O)NC1=O)C2=O (stereo partly drawn) [Compound 89] | 7% | < 10 nM | – |
| CCn1c2c(c3ccc(OCCCCN4CCCN(c5ccc(C(=O)N[C@H]6CC[C@H](Oc7ccc(C#N)c(Cl)c7)CC6)nn5)CC4)cc31)C(=O)N(C1CCC(=O)NC1=O)C2=O (stereo partly drawn) [Compound 90] | 28% | 25 to 100 nM | – |
| CCn1c2c(c3ccc(OCCCCN4CCN(c5ccc(C(=O)N[C@H]6CC[C@H](N(C)c7ccc(C#N)c(Cl)c7)CC6)nn5)CC4)cc31)C(=O)N(C1CCC(=O)NC1=O)C2=O (stereo partly drawn) [Compound 91] | 0% | 10 to 25 nM | – |
| Cn1c2c(c3ccc(OCCCN4CCC5(CC4)CN(c4ccc(C(=O)N[C@H]6CC[C@H](Oc7ccc(C#N)c(Cl)c7)CC6)nn4)C5)cc31)C(=O)N(C1CCC(=O)NC1=O)C2=O (stereo partly drawn) [Compound 92] | – | – | remaining activity at 0.1 µM (24 h, LNCaP.FGC cells, 100 nM, 24 hr, normalized to GAPDH, untreated cells = 100%; read-out: Androgen Receptor Remaining (%)): 6%; DC50 (LNCaP.FGC cells, serial 10x dilutions from 100 nM; read-out: AR DC50 (concentration needed for 50% AR degradation)): 25 to 100 nM |
| C=Nc1ccc(O[C@H]2CC[C@H](NC(=O)c3ccc(N4CC5(CCN(CCCOc6ccc7c8c(n(CC(F)F)c7c6)C(=O)N(C6CCC(=O)NC6=O)C8=O)CC5)C4)nn3)CC2)cc1Cl (stereo partly drawn) [Compound 93] | 11% | 25 to 100 nM | – |
| CCn1c2c(c3ccc(OCCCN4CC5(CCN(c6ccc(C(=O)N[C@H]7CC[C@H](Oc8ccc(C#N)c(Cl)c8)CC7)nn6)CC5)C4)cc31)C(=O)N(C1CCC(=O)N(COCC[Si](C)(C)C)C1=O)C2=O (stereo partly drawn) [Compound 94] | 89% | – | – |
| CCn1c2c(c3ccc(OCCCN4CC5(CCN(c6ccc(C(=O)N[C@H]7CC[C@H](Oc8ccc(C#N)c(Cl)c8)CC7)nn6)CC5)C4)cc31)C(=O)N(C1CCC(=O)N(CO)C1=O)C2=O (stereo partly drawn) [Compound 95] | 1% | 10 to 25 nM | – |
| CCn1c2c(c3ccc(OCCCN4CC5(CCN(c6ccc(C(=O)N[C@H]7CC[C@H](Oc8ccc(C#N)c(Cl)c8)CC7)nn6)CC5)C4)cc31)C(=O)N(C1CCC(=O)NC1=O)C2=O (stereo partly drawn) [Compound 96] | – | 10 to 25 nM | Androgen Receptor Remaining (%) (LNCaP.FGC cells, 100 nM, 24 hr, normalized to GAPDH, untreated cells = 100%): 1% |
| CCn1c2c(c3ccc(OCCCN4CCN(c5ccc(C(=O)N[C@H]6CC[C@H](Oc7ccc(C#N)c(Cl)c7)CC6)nn5)[C@H](C)C4)cc31)C(=O)N(C1CCC(=O)NC1=O)C2=O (stereo partly drawn) [Compound 98] | 26% | 25 to 100 nM | – |
| CCn1c2c(c3ccc(OCCN4CCN(c5ccc(C(=O)N[C@H]6CC[C@H](Oc7ccc(C#N)c(Cl)c7)CC6)nn5)[C@H](C)C4)cc31)C(=O)N(C1CCC(=O)NC1=O)C2=O (stereo partly drawn) [Compound 99] | 39% | 25 to 100 nM | – |
| CCn1c2c(c3ccc(OCCCCN4C5CCC4CN(c4ccc(C(=O)N[C@H]6CC[C@H](Oc7ccc(C#N)c(Cl)c7)CC6)nn4)C5)cc31)C(=O)N(C1CCC(=O)NC1=O)C2=O (stereo partly drawn) [Compound 100] | 44% | 25 to 100 nM | – |
| N#Cc1ccc(O[C@H]2CC[C@H](NC(=O)c3ccc(N4CC5(CCN(CCOc6ccc7c8c(n(CC(F)F)c7c6)C(=O)N(C6CCC(=O)NC6=O)C8=O)CC5)C4)nn3)CC2)cc1Cl (stereo partly drawn) [Compound 103] | 52% | – | – |
| CN(c1ccc(C#N)c(Cl)c1)[C@H]1CC[C@H](NC(=O)c2ccc(N3CCN(CCOc4ccc5c6c(n(CC(F)F)c5c4)C(=O)N(C4CCC(=O)NC4=O)C6=O)CC3)nn2)CC1 (stereo partly drawn) [Compound 104] | 42% | 25 to 100 nM | – |
| N#Cc1ccc(O[C@H]2CC[C@H](NC(=O)c3ccc(N4CCN(CCOc5ccc6c7c(n(CC(F)F)c6c5)C(=O)N(C5CCC(=O)NC5=O)C7=O)CC4)nn3)CC2)cc1Cl (stereo partly drawn) [Compound 105] | 42% | 25 to 100 nM | – |
| CCn1c2c(c3ccc(OCCN4CCC5(CC4)CN(c4ccc(C(=O)N[C@H]6CC[C@H](N(C)c7ccc(C#N)c(Cl)c7)CC6)nn4)C5)cc31)C(=O)N(C1CCC(=O)NC1=O)C2=O (stereo partly drawn) [Compound 106] | 119% | – | – |
| CCn1c2c(c3ccc(OCCCN4CCC5(CC4)CN(c4ccc(C(=O)N[C@H]6CC[C@H](N(C)c7ccc(C#N)c(Cl)c7)CC6)nn4)C5)cc31)C(=O)N(C1CCC(=O)NC1=O)C2=O (stereo partly drawn) [Compound 107] | 15% | – | – |
| CN(c1ccc(C#N)c(Cl)c1)[C@H]1CC[C@H](NC(=O)c2ccc(N3CC4(CCN(CCOc5ccc6c7c(n(CC(F)F)c6c5)C(=O)N(C5CCC(=O)NC5=O)C7=O)CC4)C3)nn2)CC1 (stereo partly drawn) [Compound 108] | 19% | – | – |
| CCn1c2c(c3ccc(OCCN4CCCN(c5ccc(C(=O)N[C@H]6CC[C@H](N(C)c7ccc(C#N)c(Cl)c7)CC6)nn5)CC4)cc31)C(=O)N(C1CCC(=O)NC1=O)C2=O (stereo partly drawn) [Compound 110] | 34% | 10 to 25 nM | – |
| CCn1c2c(c3ccc(OCCCCN4CCCN(c5ccc(C(=O)N[C@H]6CC[C@H](N(C)c7ccc(C#N)c(Cl)c7)CC6)nn5)CC4)cc31)C(=O)N(C1CCC(=O)NC1=O)C2=O (stereo partly drawn) [Compound 112] | 32% | 10 to 25 nM | – |
